Test results reported in paper PMC11790914, “Chemogenomics for steroid hormone receptors (NR3)” (Communications Chemistry, 2025).
Where “and” joins values, the source holds several entries; their conditions need not be identical. Identical values can stand only once. Like-named read-outs stand apart in the source and are kept apart here.

Assays:
HEK293T cells [1] = assay: Cytotoxicity: necrosis induction (red fluorescent dye for permeable plasma membranes); assay type: cell-based; details: 1 µM, 24 h, necrotic cell count normalized to 0.1% DMSO, single replicates;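 note: compounds applied in DMEM high glucose with 0.1% FCS and 0.1% DMSO, necrotic HEK293T cells counted by red staining of cells whose plasma membranes had become permeable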
CSNK1D = biological target: T1, CSNK1D (Homo sapiens, UniProt P48730); assay: Liability panel screening by DSF: CSNK1D; assay type: binding; details: read-out: Mean ΔTM CSNK1D
T1 construct: made in house
Summary of the method: (§1)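 ∆Tm in K was taken from Boltzmann-fitted unfolding inflection points, run in duplicate with a temperature ramp of 3 °C per minute up to 85 °C. Each recombinant protein (2 µM) was in HEPES 10 mM pH 7.5 and NaCl 500 mM, with SYPRO Orange dye at 1:1000.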

GSK3B = biological target: T2, GSK3B (Homo sapiens, UniProt P49841); assay: Liability panel screening by DSF: GSK3B; assay type: binding; details: read-out: Mean ΔTM GSK3B
T2 construct: made in house

NR3C4 (AR) = details: cited from earlier work
ABL1 = biological target: T3, ABL1 (Homo sapiens, UniProt P00519); assay: Liability panel screening by DSF: ABL1; assay type: binding; details: read-out: Mean ΔTM ABL1
T3 construct: made in house
Summary of the method: as §1

Gal4-VP16 = assay type: cell-based; details: 1 µM; vs. DMSO ctrl; single replicates n=1-3
CDK2 = biological target: T4, CDK2 (Homo sapiens, UniProt P24941); assay: Liability panel screening by DSF: CDK2; assay type: binding; details: read-out: Mean ΔTM CDK2
T4 construct: made in house
Summary of the method: as §1

[2] = test system: NF-κB activity in HEK293 NF-κB reporter cells; assay: NF-kB activity assay (GFP reporter, ionomycin/PMA); assay type: cell-based; details: for Mean NFκB response: n=3; for NF-κB activity (inflammatory response to ionomycin/PMA): HEK293 NF-κB reporter cells, compounds at recommended concentrations, imaged over 24 h, n = 3
Summary of the method: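 Reporter readout: GFP-expressing cells normalized to confluence, imaged every 90 min across 24 h after ionomycin (100 ng/mL)/PMA (10 ng/mL) stimulation of HEK293 cells pre-treated 4 h with compound (0.1% DMSO); triplicate independent experiments.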

HEK293T cells [3] = assay: Cytotoxicity: apoptosis induction (caspase-3/7 DEVD fluorogenic DNA dye); details: 1 µM; HEK293T, 24 h; apoptotic cell count normalized to 0.1% DMSO; single replicates
HEK293T cells [4] = assay: Cytotoxicity: growth-rate (change in confluence over 24 h); details: 1 µM, normalized to 0.1% DMSO control, single replicates (n=1...)
MAPK1 = biological target: T5, MAPK1 (Homo sapiens, UniProt P28482); assay: Liability panel screening by DSF: MAPK1; assay type: binding; details: read-out: Mean ΔTM MAPK1
T5 construct: made in house
Summary of the method: as §1

[5] = test system: ATF6 activity in Hela ATF6 reporter cells; assay: Endoplasmic reticulum stress assay (ATF6 Renilla luciferase reporter, tunicamycin); assay type: cell-based; details: Homo sapiens, HeLa, 1 µM, single replicates n=1 to n=5; read-out: ER stress [rel. ATF6 activity]
Summary of the method: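 ER stress was induced by 100 ng/mL tunicamycin added 4 h after compound (0.1% DMSO) to HeLa ATF6 reporter cells. After 18 h more, Renilla luciferase signal was read and expressed relative to DMSO control, n=5 biological replicates.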

BRD4 = biological target: T6, BRD4 (Homo sapiens, UniProt O60885); assay: Liability panel screening by DSF: BRD4; assay type: binding; details: read-out: Mean ΔTM BRD4
T6 construct: This panel comprised ten highly ligandable kinases and bromodomains; made in house
Summary of the method: as §1

BRPF1 = biological target: T7, BRPF1 (Homo sapiens, UniProt P55201); assay: Liability panel screening by DSF: BRPF1; assay type: binding; details: read-out: Mean ΔTM BRPF1
T7 construct: This panel comprised ten highly ligandable kinases and bromodomains; made in house
T7 sequence (P55201 628-732 limits assumed): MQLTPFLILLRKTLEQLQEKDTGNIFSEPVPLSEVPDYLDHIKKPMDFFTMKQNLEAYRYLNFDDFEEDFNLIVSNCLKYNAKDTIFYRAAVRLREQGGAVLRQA
Summary of the method: as §1

TRIM24 = biological target: T8, TRIM24 (Homo sapiens, UniProt O15164); assay: Liability panel screening by DSF: TRIM24; assay type: binding; details: read-out: Mean ΔTM TRIM24
T8 construct: This panel comprised ten highly ligandable kinases and bromodomains; made in house
T8 sequence (O15164 899-1004 limits assumed): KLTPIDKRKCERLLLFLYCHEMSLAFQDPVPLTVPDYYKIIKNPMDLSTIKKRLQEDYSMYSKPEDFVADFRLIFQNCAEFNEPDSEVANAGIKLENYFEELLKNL
Summary of the method: as §1

AURKA = biological target: T9, AURKA (Homo sapiens, UniProt O14965); assay: Liability panel screening by DSF: AURKA; assay type: binding; details: read-out: Mean ΔTM AURKA
T9 construct: made in house
T9 sequence (O14965 1-403): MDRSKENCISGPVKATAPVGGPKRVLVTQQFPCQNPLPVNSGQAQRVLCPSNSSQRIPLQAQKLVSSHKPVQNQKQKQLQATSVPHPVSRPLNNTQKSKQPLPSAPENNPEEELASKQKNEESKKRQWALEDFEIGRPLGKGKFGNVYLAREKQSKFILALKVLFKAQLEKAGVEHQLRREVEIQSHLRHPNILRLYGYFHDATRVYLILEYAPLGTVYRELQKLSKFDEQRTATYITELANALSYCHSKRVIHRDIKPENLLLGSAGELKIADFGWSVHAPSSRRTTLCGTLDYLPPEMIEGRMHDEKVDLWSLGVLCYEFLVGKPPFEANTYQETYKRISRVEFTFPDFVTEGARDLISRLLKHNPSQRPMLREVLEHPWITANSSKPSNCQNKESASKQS
Summary of the method: as §1

FGFR3 = biological target: T10, FGFR3 (Homo sapiens, UniProt P22607); assay: Liability panel screening by DSF: FGFR3; assay type: binding; details: read-out: Mean ΔTM FGFR3
T10 construct: made in house
Summary of the method: as §1

HEK293T cells [6] = assay: Cytotoxicity: metabolic activity (WST-8 / CCK-8 assay); details: 1 µM; HEK293T, 24 h; WST-8; normalized to 0.1% DMSO; single replicates

T1 sequence (P48730 whole entry, species assumed): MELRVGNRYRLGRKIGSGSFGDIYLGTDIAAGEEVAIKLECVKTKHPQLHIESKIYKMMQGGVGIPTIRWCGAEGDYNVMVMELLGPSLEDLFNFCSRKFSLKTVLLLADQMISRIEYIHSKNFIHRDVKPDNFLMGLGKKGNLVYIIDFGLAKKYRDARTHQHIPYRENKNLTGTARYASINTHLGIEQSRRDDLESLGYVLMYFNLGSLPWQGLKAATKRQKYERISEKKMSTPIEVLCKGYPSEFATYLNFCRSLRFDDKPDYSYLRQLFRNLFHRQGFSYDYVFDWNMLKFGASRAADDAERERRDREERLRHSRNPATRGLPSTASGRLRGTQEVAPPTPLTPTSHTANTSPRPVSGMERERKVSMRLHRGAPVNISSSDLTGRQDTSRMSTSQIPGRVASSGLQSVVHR
T10 sequence (P22607 23-806, species assumed): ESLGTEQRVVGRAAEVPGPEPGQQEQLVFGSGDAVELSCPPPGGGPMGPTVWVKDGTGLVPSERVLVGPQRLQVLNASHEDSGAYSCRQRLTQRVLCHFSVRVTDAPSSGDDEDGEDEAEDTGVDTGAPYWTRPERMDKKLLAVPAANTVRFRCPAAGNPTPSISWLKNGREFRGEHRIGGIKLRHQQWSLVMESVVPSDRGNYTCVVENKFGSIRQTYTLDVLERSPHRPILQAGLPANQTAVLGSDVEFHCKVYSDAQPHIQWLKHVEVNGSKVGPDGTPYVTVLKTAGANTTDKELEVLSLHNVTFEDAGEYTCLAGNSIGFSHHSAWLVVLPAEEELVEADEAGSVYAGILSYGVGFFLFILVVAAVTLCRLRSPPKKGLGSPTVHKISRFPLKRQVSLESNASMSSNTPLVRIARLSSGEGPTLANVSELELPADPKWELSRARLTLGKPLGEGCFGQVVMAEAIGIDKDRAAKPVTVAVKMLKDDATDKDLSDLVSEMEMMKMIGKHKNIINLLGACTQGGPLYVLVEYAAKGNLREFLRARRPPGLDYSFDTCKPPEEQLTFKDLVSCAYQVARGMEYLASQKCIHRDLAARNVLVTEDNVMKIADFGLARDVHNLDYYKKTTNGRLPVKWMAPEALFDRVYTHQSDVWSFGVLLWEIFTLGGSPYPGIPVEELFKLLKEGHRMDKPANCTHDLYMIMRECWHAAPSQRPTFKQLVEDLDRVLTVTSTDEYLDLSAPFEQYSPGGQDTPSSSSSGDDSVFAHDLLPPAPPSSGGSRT
T2 sequence (P49841 whole entry, species assumed): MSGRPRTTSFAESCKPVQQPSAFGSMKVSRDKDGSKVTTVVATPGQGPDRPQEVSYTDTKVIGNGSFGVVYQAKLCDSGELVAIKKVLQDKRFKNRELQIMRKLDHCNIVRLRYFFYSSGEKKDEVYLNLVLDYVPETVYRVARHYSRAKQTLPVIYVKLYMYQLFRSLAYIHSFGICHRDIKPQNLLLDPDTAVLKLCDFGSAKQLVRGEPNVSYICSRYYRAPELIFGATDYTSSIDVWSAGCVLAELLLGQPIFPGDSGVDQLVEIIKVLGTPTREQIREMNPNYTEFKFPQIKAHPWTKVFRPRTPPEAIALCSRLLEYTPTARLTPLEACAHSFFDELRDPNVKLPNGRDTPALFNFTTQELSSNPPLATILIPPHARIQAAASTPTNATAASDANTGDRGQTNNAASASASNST
T3 sequence (P00519 whole entry, species assumed): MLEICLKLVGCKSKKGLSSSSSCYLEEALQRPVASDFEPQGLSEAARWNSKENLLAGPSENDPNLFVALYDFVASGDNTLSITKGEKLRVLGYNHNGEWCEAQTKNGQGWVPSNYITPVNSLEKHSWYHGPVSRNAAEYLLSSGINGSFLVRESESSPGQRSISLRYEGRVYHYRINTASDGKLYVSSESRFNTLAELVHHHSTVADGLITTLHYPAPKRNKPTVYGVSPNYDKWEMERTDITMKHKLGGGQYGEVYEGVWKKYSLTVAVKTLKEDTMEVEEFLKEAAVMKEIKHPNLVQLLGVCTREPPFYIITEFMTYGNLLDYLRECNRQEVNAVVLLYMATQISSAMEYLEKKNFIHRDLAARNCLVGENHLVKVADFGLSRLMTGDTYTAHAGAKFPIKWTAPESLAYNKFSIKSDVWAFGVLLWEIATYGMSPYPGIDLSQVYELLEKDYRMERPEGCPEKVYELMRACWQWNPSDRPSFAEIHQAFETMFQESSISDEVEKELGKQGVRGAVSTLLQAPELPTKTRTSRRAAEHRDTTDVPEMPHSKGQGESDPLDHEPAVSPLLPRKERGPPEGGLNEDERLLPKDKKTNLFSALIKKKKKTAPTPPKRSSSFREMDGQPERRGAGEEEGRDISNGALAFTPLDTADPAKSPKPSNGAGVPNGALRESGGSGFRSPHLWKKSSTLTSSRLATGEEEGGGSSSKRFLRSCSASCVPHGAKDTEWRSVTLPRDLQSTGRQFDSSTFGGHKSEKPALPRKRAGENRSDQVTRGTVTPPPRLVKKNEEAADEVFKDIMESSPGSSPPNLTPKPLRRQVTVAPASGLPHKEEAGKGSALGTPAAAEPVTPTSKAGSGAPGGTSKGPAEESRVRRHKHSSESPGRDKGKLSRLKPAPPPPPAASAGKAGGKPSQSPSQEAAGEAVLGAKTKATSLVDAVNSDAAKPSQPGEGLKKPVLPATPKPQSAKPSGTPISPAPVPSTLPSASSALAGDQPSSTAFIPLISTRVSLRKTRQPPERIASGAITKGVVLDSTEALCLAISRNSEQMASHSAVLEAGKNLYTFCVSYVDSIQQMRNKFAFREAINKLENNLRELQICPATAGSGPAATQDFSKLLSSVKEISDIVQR
T5 sequence (P28482 whole entry, species assumed): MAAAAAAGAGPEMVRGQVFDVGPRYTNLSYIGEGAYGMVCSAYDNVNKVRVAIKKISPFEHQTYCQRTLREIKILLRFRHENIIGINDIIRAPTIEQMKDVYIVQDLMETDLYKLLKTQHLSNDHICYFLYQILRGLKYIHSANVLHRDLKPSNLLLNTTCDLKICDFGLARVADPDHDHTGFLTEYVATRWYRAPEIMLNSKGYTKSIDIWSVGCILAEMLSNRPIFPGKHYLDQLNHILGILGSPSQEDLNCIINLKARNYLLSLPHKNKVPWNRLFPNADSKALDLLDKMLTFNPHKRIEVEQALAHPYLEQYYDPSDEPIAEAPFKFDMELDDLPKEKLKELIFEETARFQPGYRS

Structure (SMILES)	Necrosis induction [NI] (HEK293T cells [1])	VP16 control [fold reporter gene activity] (Gal4-VP16)	Mean NFκB response ([2]; 1 µM, 1,5 h)	Mean NFκB response ([2]; 1 µM, 4,5 h)	Mean NFκB response ([2]; 1 µM, 7,5 h)	Mean NFκB response ([2]; 1 µM, 10,5 h)	Mean NFκB response ([2]; 1 µM, 13,5 h)	Mean NFκB response ([2]; 1 µM, 16,6 h)	Mean NFκB response ([2]; 1 µM, 19,5 h)	Mean NFκB response ([2]; 1 µM, 22,5 h)	Mean NFκB response ([2]; 1 µM, 3 h)	Mean NFκB response ([2]; 1 µM, 6 h)	Mean NFκB response ([2]; 1 µM, 9 h)	Mean NFκB response ([2]; 1 µM, 12 h)	Mean NFκB response ([2]; 1 µM, 15 h)	Mean NFκB response ([2]; 1 µM, 18 h)	Mean NFκB response ([2]; 1 µM, 21 h)	Mean NFκB response ([2]; 1 µM, 24 h)	NF-κB activity (inflammatory response to ionomycin/PMA) [2]	Apoptosis induction [AI] (HEK293T cells [3])	other results
CC(=O)Nc1ccc(OC[C@](C)(O)C(=O)Nc2ccc([N+](=O)[O-])c(C(F)(F)F)c2)cc1 [Andarine]	0.97 and 1.10 and 1.08 and 1.02	1.16 fold reporter gene activity and 1.15 fold reporter gene activity and 1.08 fold reporter gene activity	2599.83 GFP+-cells/confluence ∙ 1000	2912.69 GFP+-cells/confluence ∙ 1000	4207.99 GFP+-cells/confluence ∙ 1000	8408.10 GFP+-cells/confluence ∙ 1000	11806.03 GFP+-cells/confluence ∙ 1000	14271.49 GFP+-cells/confluence ∙ 1000	16631.36 GFP+-cells/confluence ∙ 1000	18398.57 GFP+-cells/confluence ∙ 1000	2627.11 GFP+-cells/confluence ∙ 1000	3252.11 GFP+-cells/confluence ∙ 1000	5899.76 GFP+-cells/confluence ∙ 1000	10166.51 GFP+-cells/confluence ∙ 1000	13144.54 GFP+-cells/confluence ∙ 1000	15566.10 GFP+-cells/confluence ∙ 1000	17508.52 GFP+-cells/confluence ∙ 1000	19523.33 GFP+-cells/confluence ∙ 1000	anti-inflammatory effect	0.62 and 0.88 and 1.01 and 1.08 and 0.95 and 0.84	ΔTm at 20 µM (CSNK1D): 0.23 °C; ΔTm at 20 µM (GSK3B): 0.71 °C; rel. activity from literature, NR3C4 (AR): % of DHT (NR3C4 (AR); of DHT (dihydrotestosterone), ref Supplementary Table 1): 93 ± 7%; EC50 (NR3C4 (AR); read-out: Potency [nM] EC50, NR3C4 (AR), (lit.), ref Supplementary Table 1): 4 ± 0.7 nM; ΔTm at 20 µM (ABL1): 0.78 °C; ΔTm at 20 µM (CDK2): 0.35 °C; Growth rate [GR] (HEK293T cells [4]): 0.83 (2×) and 2.46 and 0.88 and 1.35 and 0.73 and 0.55 and 1.46 and 1.51 and 2.55; ΔTm at 20 µM (MAPK1): -0.26 °C; activity at 1 µM [5]: 93%; ΔTm at 20 µM (BRD4): -0.77 °C; ΔTm at 20 µM (BRPF1): 0.97 °C; ΔTm at 20 µM (TRIM24): 0.0216 °C; ΔTm at 20 µM (AURKA): -0.0326 °C; ΔTm at 20 µM (FGFR3): 2.59 °C; Metabolic activity [MA] (HEK293T cells [6]): 0.98 and 1.03 and 0.99 and 1.08 and 1.06 (2×) and 1.01 and 1.09
CC(=O)O[C@]1(C(C)=O)CC[C@H]2[C@@H]3C=C(Cl)C4=CC(=O)[C@@H]5C[C@@H]5[C@]4(C)[C@H]3CC[C@@]21C [Cyproterone acetate]	0.92 and 0.81 and 0.87 and 0.98	1.23 fold reporter gene activity and 1.09 fold reporter gene activity and 0.95 fold reporter gene activity	3306.11 GFP+-cells/confluence ∙ 1000	3956.53 GFP+-cells/confluence ∙ 1000	9166.88 GFP+-cells/confluence ∙ 1000	19295.79 GFP+-cells/confluence ∙ 1000	27594.44 GFP+-cells/confluence ∙ 1000	34636.12 GFP+-cells/confluence ∙ 1000	38741.56 GFP+-cells/confluence ∙ 1000	41845.76 GFP+-cells/confluence ∙ 1000	3525.65 GFP+-cells/confluence ∙ 1000	5348.79 GFP+-cells/confluence ∙ 1000	14582.16 GFP+-cells/confluence ∙ 1000	23573.19 GFP+-cells/confluence ∙ 1000	31392.99 GFP+-cells/confluence ∙ 1000	36648.57 GFP+-cells/confluence ∙ 1000	40465.37 GFP+-cells/confluence ∙ 1000	42894.68 GFP+-cells/confluence ∙ 1000	tended to enhance NF-κB activity	0.80 and 0.89 and 0.91 and 1.07 and 1.28 and 0.67	ΔTm at 20 µM (CSNK1D; DSF, 20 µM, n=2): 0.16 °C; ΔTm at 20 µM (GSK3B; DSF, 20 µM, n=2): -0.72 °C; rel. activity from literature, NR3C4 (AR): % rem. act. of DHT (NR3C4 (AR)): 52 ± 6%; IC50 (NR3C4 (AR); read-out: Potency [nM] IC50, NR3C4 (AR)): 26 ± 23 nM; ΔTm at 20 µM (ABL1; DSF, 20 µM, n=2): 0.36 °C; ΔTm at 20 µM (CDK2; DSF, 20 µM, n=2): 0.15 °C; Growth rate [GR] (HEK293T cells [4]): 1.11 and 1.76 and 1.28 and 1.77 and 1.08 and 0.80 (2×) and 0.94 and 0.96 and 1.44; ΔTm at 20 µM (MAPK1; DSF, 20 µM, n=2): -0.22 °C; ΔTm at 20 µM (BRD4; DSF, 20 µM, n=2): -1.71 °C; ΔTm at 20 µM (BRPF1; DSF, 20 µM, n=2): -1.28 °C; ΔTm at 20 µM (TRIM24; DSF, 20 µM, n=2): -1.08 °C; ΔTm at 20 µM (AURKA; DSF, 20 µM, n=2): -1.49 °C; ΔTm at 20 µM (FGFR3; DSF, 20 µM, n=2): 0.57 °C; Metabolic activity [MA] (HEK293T cells [6]): 1.02 (2×) and 0.92 and 0.98 and 1.01 and 0.94 and 0.99 and 1.05
